Among the test systems are A549; U-251; SF-268; RXF 393; UO-31; OVCAR-4; HCT-116; M14; UACC-257; HL-60; OVCAR-5; KM12; NCI-H522; EKVX; A498; HT-29; SK-OV-3; SK-MEL-5; HCT-15; K562.
Common to all, as to assay: DTP human tumour cell line panel, 48 h

Structures are written as SMILES.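 Compound exposure: 48 hours, 5 concentrations, 96-well plates. GI50 = concentration required for 50% inhibition of growth.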 Active and inactive are the calls of the source. No stated cut-off is given here; in the data, active = GI50 up to about 1.1 µM and inactive = higher. Where only a bound is given, the exact number is not on record here.

As usually defined, the GI50 is the concentration that inhibits growth by half. With `Clc1ccc(N/N=C(\c2ccccc2)c2ccccn2)nc1`, the 50% growth inhibitory concentration (GI50) in the assay on A549 was 0.387 µM (active); in the assay with U-251, 0.031 µM (active); in the assay with SF-268 it was 0.0258 µM (active); in the assay with RXF 393 it was 2.2 µM (inactive); in the assay on UO-31, 0.0494 µM (active); in the assay on OVCAR-4, 3.04 µM (inactive). The GI50 in the assay on HCT-116 was < 0.0148 µM (active); with M14 it was < 0.01 µM (active); with UACC-257, < 0.0158 µM (active); in the assay on HL-60, < 0.01 µM (active); with OVCAR-5, 0.895 µM (active); with KM12 it was 0.348 µM (active). Also, the GI50 in the assay with NCI-H522 is < 0.01 µM (active); in the assay with EKVX it was < 0.01 µM (active); in the assay with A498 it was 49.8 µM (inactive); with HT-29 it was < 0.01 µM (active); in the assay on SK-OV-3, 0.282 µM (active); in the assay on SK-MEL-5, 0.0578 µM (active). In addition, in the assay on HCT-15, the GI50 was below 0.0183 µM.

Regarding `Cc1cc(C)c(C2=NO[C@@H]3[C@H]2C(=O)C=C2N(Cc4ccccc4)CCO[C@@]23O)c(C)c1`, the GI50 in the assay with A549, in the assay on U-251, in the assay with SF-268, in the assay on RXF 393, with UO-31 and in the assay on OVCAR-4 was > 100 µM (inactive) throughout. In addition, the GI50 in the assay with HCT-116, in the assay with UACC-257, in the assay with HL-60, with OVCAR-5, in the assay on K562 and in the assay with KM12 was > 100 µM (inactive) each time. Further, the GI50 in the assay with NCI-H522, with EKVX, with A498, in the assay on HT-29, in the assay on SK-OV-3 and in the assay with SK-MEL-5 was > 100 µM (inactive) each time. In the assay on HCT-15, this molecule registered a concentration for 50% growth inhibition (GI50) above 100 µM.

Consider `CC1CC=CC(O)C1` (stereo not given), for which the GI50 in the assay with A549, with U-251, in the assay with SF-268, in the assay on RXF 393, in the assay on UO-31 and with OVCAR-4 was > 100 µM (inactive) in each case. For the same molecule, the GI50 in the assay with HCT-116, in the assay on UACC-257, in the assay with HL-60, with OVCAR-5, with K562 and in the assay on KM12 was > 100 µM (inactive) in each case. Besides, the GI50 with NCI-H522, in the assay with EKVX, in the assay on A498, in the assay on HT-29, in the assay on SK-OV-3 and in the assay with SK-MEL-5 was > 100 µM (inactive) throughout. In the assay with HCT-15, this molecule registered a GI50 above 100 µM.

For `CN(C)CCNC(=O)c1ccc(Cl)c2ccc(-c3ccccc3)nc12`, the GI50 is 2.92 µM (inactive) in the assay with A549; 2.93 µM (inactive) in the assay with U-251; 4.45 µM (inactive) with SF-268; 5.38 µM (inactive) in the assay with RXF 393; 1.77 µM (inactive) in the assay with UO-31; 3.54 µM (inactive) in the assay on OVCAR-4. Further, the GI50 with HCT-116 was 1.88 µM (inactive); in the assay on UACC-257, 4.04 µM (inactive); with HL-60, 2.58 µM (inactive); in the assay with OVCAR-5, 3.49 µM (inactive); with K562 it was 2.27 µM (inactive); in the assay on KM12, 4.47 µM (inactive). The GI50 is 3.89 µM (inactive) in the assay with NCI-H522; 5.16 µM (inactive) in the assay with A498; 2.77 µM (inactive) in the assay on HT-29; 4.7 µM (inactive) with SK-OV-3; 1.95 µM (inactive) with SK-MEL-5; 3.42 µM in the assay with HCT-15.

On to `COCC1N=C(c2cc(OC)c(OC)c(OC)c2-c2cc3c(cc2[C@@H](C)O)OCO3)O[C@H]1c1ccccc1` (stereo not given in full), for which the GI50 is > 57.3 µM (inactive) in the assay with A549; 53.2 µM (inactive) in the assay with U-251; > 66.2 µM (inactive) with SF-268; 33.7 µM (inactive) with RXF 393; > 100 µM (inactive) in the assay on UO-31; 37.6 µM (inactive) with OVCAR-4. Besides, the GI50 in the assay with HCT-116 is > 100 µM (inactive); with UACC-257, > 100 µM (inactive); in the assay with HL-60, > 100 µM (inactive); in the assay with OVCAR-5 it was > 73.8 µM (inactive); with K562 it was > 100 µM (inactive); in the assay on KM12, > 100 µM (inactive). The GI50 was 36.2 µM (inactive) in the assay with NCI-H522; 36.8 µM (inactive) in the assay on EKVX; > 94.4 µM (inactive) in the assay with A498; 75.9 µM (inactive) with HT-29; 97.5 µM (inactive) in the assay on SK-OV-3; > 76.7 µM (inactive) in the assay with SK-MEL-5. Besides, the GI50 in the assay on HCT-15 is above 100 µM.

Take `COc1cc(C2c3cc4c(cc3[C@@H](Nc3cccc([N+](=O)[O-])c3)C3COC(=O)[C@H]23)OCO4)cc(OC)c1O` (stereo not given in full): the GI50 in the assay on A549 is 0.2 µM (active); with U-251, 1.94 µM (inactive); with SF-268, 2.91 µM (inactive); in the assay with RXF 393, 2.21 µM (inactive); in the assay with UO-31, 2.23 µM (inactive); in the assay on OVCAR-4 it was 20.2 µM (inactive). For the same molecule, the GI50 with HCT-116 is 1.99 µM (inactive); with UACC-257, 4.73 µM (inactive); in the assay with HL-60 it was 1.05 µM (active); in the assay on OVCAR-5, 2.16 µM (inactive); with K562, 2.94 µM (inactive); in the assay with KM12 it was 3.01 µM (inactive). Moreover, the GI50 is 2.83 µM (inactive) in the assay on NCI-H522; 3.56 µM (inactive) with EKVX; 1.46 µM (inactive) in the assay with A498; 2.6 µM (inactive) with HT-29; 2.51 µM (inactive) in the assay on SK-OV-3; 1.88 µM (inactive) with SK-MEL-5. Further, the GI50 with HCT-15 was 1.39 µM.

For `OCC1C2C=CC(O2)[C@H]1CO` (stereo not given in full), the GI50 with A549 is > 100 µM (inactive); in the assay with U-251, > 100 µM (inactive); in the assay on SF-268, > 100 µM (inactive); in the assay on RXF 393, 42.4 µM (inactive); with UO-31, > 100 µM (inactive); with OVCAR-4 it was > 100 µM (inactive). For the same molecule, the GI50 in the assay on HCT-116, in the assay with M14, in the assay with UACC-257, in the assay on HL-60, with OVCAR-5 and in the assay with KM12 was > 100 µM (inactive) each time. Also, the GI50 in the assay with NCI-H522 is > 100 µM (inactive); with EKVX, > 100 µM (inactive); in the assay on A498, > 100 µM (inactive); in the assay on HT-29, 79.6 µM (inactive); with SK-OV-3 it was > 100 µM (inactive); in the assay with SK-MEL-5, > 100 µM (inactive). In the assay with HCT-15, this molecule returned a GI50 above 100 µM.

Regarding `CC([C@H]1CCC2C3CCC4CC5(CC[C@]4(C)C3CC[C@@]21C)c1ccccc1C(=O)N5C)N(C)C` (stereo not given in full), the GI50 is 78.5 µM (inactive) in the assay on A549; 40.4 µM (inactive) with U-251; > 100 µM (inactive) in the assay with SF-268; 33 µM (inactive) in the assay with RXF 393; 13 µM (inactive) with UO-31; 68.1 µM (inactive) in the assay on OVCAR-4. The GI50 was 13.3 µM (inactive) in the assay on HCT-116; 13.9 µM (inactive) in the assay with M14; 17.5 µM (inactive) in the assay on HL-60; 29 µM (inactive) in the assay with OVCAR-5; 15.7 µM (inactive) in the assay with K562; 74.8 µM (inactive) in the assay on KM12. The GI50 was 46.9 µM (inactive) with NCI-H522; 23.8 µM (inactive) with A498; 6.18 µM (inactive) with HT-29; > 100 µM (inactive) with SK-OV-3; 17.9 µM (inactive) in the assay with SK-MEL-5; 27.7 µM with HCT-15.

Values taken from ChEMBL document CHEMBL1201862, “PubChem BioAssay data set” (2004).
